Experimental data published in ChEMBL document CHEMBL5543151, “Rational Design of a Novel Class of Human ClpP Agonists through a Ring-Opening Strategy with Enhanced Antileukemia Activity” (J Med Chem, 2024).

How the values were obtained:
[1] = molecular target: T1, ATP-dependent Clp protease proteolytic subunit, mitochondrial (Homo sapiens, UniProt Q16740); conditions: filed as agonist, dose 10.0 µM, time 2.0 hrs
[2] = system: MV4-11; assay: Anti-leukemia activity against human MV4-11 cells assessed as decrease in cell proliferation incubated for 72 hrs by CCK-8 assay; format: functional, cell-based; conditions: MV4-11, 72 h
[3] = molecular target: T1, ATP-dependent Clp protease proteolytic subunit, mitochondrial; assay: Agonist activity at human Casein lysing protease P (HsClpP) assessed as increase in peptidase activity using fluorescent peptide AC-WLA-AMC as substrate measured after 2 hrs by […]
[4] = system: MV4-11; assay: Potency index, ratio of ONC201 IC50 to test compound IC50 for anti-leukemia activity against human MV4-11 cells assessed as decrease in cell proliferation incubated for 72 hrs by CCK-8 assay; format: functional
[5] = Bioavailability in Sprague-Dawley rat at 5 mg/kg, iv measured upto 12 hrs by LC-MS analysis; format: ADME, organism-based; conditions: in vivo
[6] = MRT (0 to 12hrs) in Sprague-Dawley rat at 5 mg/kg, iv measured upto 12 hrs by LC-MS analysis; format: ADME, organism-based; conditions: in vivo
[7] = AUC(0 to 12hrs) in Sprague-Dawley rat at 15 mg/kg, po measured upto 12 hrs by LC-MS analysis; format: ADME, organism-based; conditions: in vivo
[8] = MRT (0 to 12hrs) in Sprague-Dawley rat at 15 mg/kg, po measured upto 12 hrs by LC-MS analysis; format: ADME, organism-based; conditions: in vivo
[9] = Cmax in Sprague-Dawley rat at 5 mg/kg, iv measured upto 12 hrs by LC-MS analysis; format: ADME, organism-based; conditions: in vivo
[10] = Half life in Sprague-Dawley rat at 5 mg/kg, iv measured upto 12 hrs by LC-MS analysis; format: ADME, organism-based; conditions: in vivo
[11] = Clearance in Sprague-Dawley rat at 5 mg/kg, iv measured upto 12 hrs by LC-MS analysis; format: ADME, organism-based; conditions: in vivo
[12] = Cmax in Sprague-Dawley rat at 15 mg/kg, po measured upto 12 hrs by LC-MS analysis; format: ADME, organism-based; conditions: in vivo
[13] = Tmax in Sprague-Dawley rat at 15 mg/kg, po measured upto 12 hrs by LC-MS analysis; format: ADME, organism-based; conditions: in vivo
[14] = AUC(0 to 12hrs) in Sprague-Dawley rat at 5 mg/kg, iv measured upto 12 hrs by LC-MS analysis; format: ADME, organism-based; conditions: in vivo
[15] = Half life in Sprague-Dawley rat at 15 mg/kg, po measured upto 12 hrs by LC-MS analysis; format: ADME, organism-based; conditions: in vivo

T1 sequence (Q16740 whole entry): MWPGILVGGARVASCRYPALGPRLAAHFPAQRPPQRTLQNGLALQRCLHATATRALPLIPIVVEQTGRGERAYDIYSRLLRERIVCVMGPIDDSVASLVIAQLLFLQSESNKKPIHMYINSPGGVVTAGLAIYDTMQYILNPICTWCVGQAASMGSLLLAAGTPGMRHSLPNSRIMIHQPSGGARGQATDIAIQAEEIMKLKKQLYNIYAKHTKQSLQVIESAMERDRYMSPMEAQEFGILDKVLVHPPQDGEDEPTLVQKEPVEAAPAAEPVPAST

Structure (SMILES) | IC50 [2] | EC50 [3] | further results
N#Cc1cccc(CN2CCc3[nH]c(NCc4ccc(F)cc4)nc(=O)c3C2)c1 | – | – | ΔTm [1]: 18.3 °C
O=c1nc(NCc2ccc(F)c(F)c2)[nH]c2c1CN(Cc1cc(F)cc(F)c1)CC2 | 30 nM | 510 nM | Ratio IC50 [4]: 20
O=c1nc(NCc2ccc(C(F)(F)F)cc2)[nH]c2c1CN(Cc1ccccc1)CC2 | 1200 nM | 2100 nM | –
O=c1nc(NCc2ccc(Br)cc2)[nH]c2c1CN(Cc1ccccc1)CC2 | 930 nM | 1950 nM | –
COc1ccccc1CNc1nc(=O)c2c([nH]1)CCN(Cc1ccccc1)C2 | > 10000 nM | > 10000 nM | –
O=c1nc(NCc2ccccc2)[nH]c2c1CN(Cc1ccccc1)CC2 | > 10000 nM | 1340 nM | –
Cc1ccccc1CNc1nc(=O)c2c([nH]1)CCN(Cc1cccc(C#N)c1)C2 | > 10000 nM | > 10000 nM | –
Cc1ccc(CN2CCc3[nH]c(NCc4ccccc4)nc(=O)c3C2)cc1 | > 10000 nM | > 10000 nM | –
Cc1ccccc1CNc1nc(=O)c2c([nH]1)CCN(Cc1ccccc1)C2 | 1510 nM | 1220 nM | –
O=c1nc(NCc2ccccc2)[nH]c2c1CN(Cc1ccc(F)cc1)CC2 | > 10000 nM | > 10000 nM | –
Cc1ccc(CNc2nc(=O)c3c([nH]2)CCN(Cc2ccccc2)C3)cc1 | 1610 nM | 1110 nM | –
N#Cc1cccc(CN2CCc3[nH]c(NCc4ccc(Cl)c(Cl)c4)nc(=O)c3C2)c1 | 60 nM | 820 nM | –
O=c1nc(NCc2ccc(Cl)c(Cl)c2)[nH]c2c1CN(Cc1ccccc1)CC2 | 450 nM | 610 nM | –
O=c1nc(NCc2ccc(C(F)(F)F)cc2)[nH]c2c1CN(Cc1ccc(Cl)c(Cl)c1)CC2 | > 10000 nM | > 10000 nM | –
O=c1nc(NCc2cccc(F)c2)[nH]c2c1CN(Cc1ccccc1)CC2 | > 10000 nM | > 10000 nM | –
O=c1nc(NCc2ccccc2)[nH]c2c1CN(Cc1cc(F)cc(F)c1)CC2 | 900 nM | 950 nM | –
Cc1ccccc1CN1CCn2c1nc(=O)c1c2CCN(Cc2ccccc2)C1 | 350 nM | 1920 nM | –
Cc1ccccc1CN1C(=O)C2=C(CCN(Cc3ccccc3)C2)N2CCN=C12.Cl | – | – | bioavailability [5]: 14.8%; MRT last at 12 h [6]: 0.7 h; AUC(0-t) at 12 h [7]: 565 ng·h/mL; MRT last at 12 h [8]: 1.3 h; Cmax [9]: 970 ng/mL; half-life [10]: 1.1 h; clearance [11]: 96.7 mL/min/kg; Cmax [12]: 448 ng/mL; Tmax [13]: 0.5 h; AUC(0-t) at 12 h [14]: 1270 ng·h/mL; half-life [15]: 1.4 h
O=c1[nH]c(NCCc2ccccc2)nc2c1CN(Cc1ccccc1)CC2 | > 10000 nM | > 10000 nM | –
O=c1nc(NCc2ccc3c(c2)OCO3)[nH]c2c1CN(Cc1cc(F)cc(F)c1)CC2 | > 10000 nM | > 10000 nM | –
O=c1nc(NCc2ccccc2)[nH]c2c1CN(Cc1ccc(Cl)cc1)CC2 | 970 nM | 1210 nM | –
COc1ccc(CNc2nc(=O)c3c([nH]2)CCN(Cc2ccccc2)C3)cc1 | 830 nM | 2020 nM | –
N#Cc1cccc(CN2CCc3[nH]c(NCc4ccccc4)nc(=O)c3C2)c1 | 450 nM | 610 nM | –
O=c1nc(NCC2CC2)[nH]c2c1CN(Cc1ccccc1)CC2 | > 10000 nM | > 10000 nM | –
N#Cc1ccccc1CN1CCc2[nH]c(NCc3ccccc3)nc(=O)c2C1 | > 10000 nM | > 10000 nM | –
O=c1nc(NCc2ccccc2F)[nH]c2c1CN(Cc1ccccc1)CC2 | 930 nM | 1350 nM | –
Cc1cccc(CNc2nc(=O)c3c([nH]2)CCN(Cc2ccccc2)C3)c1 | 1630 nM | > 10000 nM | –
O=c1nc(NCc2ccccc2)[nH]c2c1CN(Cc1ccc(F)c(F)c1)CC2 | 1200 nM | 2100 nM | –

Further lines, with some results ahead:

IC50 [2] | EC50 [3] | Structure (SMILES) | further results
> 10000 nM | > 10000 nM | O=c1nc(NCC2CCCCC2)[nH]c2c1CN(Cc1ccccc1)CC2 | –
360 nM | 1000 nM | O=c1nc(NCc2ccc(F)cc2)[nH]c2c1CN(Cc1ccccc1)CC2 | –
1880 nM | > 10000 nM | O=c1nc(NCc2cccc(Cl)c2)[nH]c2c1CN(Cc1ccccc1)CC2 | –
> 10000 nM | > 10000 nM | O=c1nc(NCc2ccccc2Br)[nH]c2c1CN(Cc1ccccc1)CC2 | –
> 10000 nM | > 10000 nM | O=c1nc(NCc2cnccn2)[nH]c2c1CN(Cc1ccccc1)CC2 | –
1680 nM | > 10000 nM | COc1cccc(CN2CCc3[nH]c(NCc4ccccc4)nc(=O)c3C2)c1 | –
> 10000 nM | > 10000 nM | Cc1ccccc1CN1CCc2[nH]c(NCc3ccccc3)nc(=O)c2C1 | –
480 nM | 1410 nM | O=c1nc(NCc2ccc(F)c(F)c2)[nH]c2c1CN(Cc1ccccc1)CC2 | –
> 10000 nM | > 10000 nM | N#Cc1cccc(CN2CCc3[nH]c(NCc4ccc(C(F)(F)F)cc4)nc(=O)c3C2)c1 | –
> 10000 nM | > 10000 nM | O=c1nc(NCc2ccc(C(F)(F)F)cc2)[nH]c2c1CN(Cc1cc(F)cc(F)c1)CC2 | –
> 10000 nM | > 10000 nM | O=c1nc(NCc2ccccc2)[nH]c2c1CN(CCc1ccccc1)CC2 | –
1690 nM | 1950 nM | O=c1nc(NCc2ccc(Cl)cc2)[nH]c2c1CN(Cc1ccccc1)CC2 | –
1030 nM | 1350 nM | O=c1nc(NCc2ccccc2)[nH]c2c1CN(Cc1ccccc1Cl)CC2 | –
2400 nM | 2250 nM | Cc1cccc(CN2CCc3[nH]c(NCc4ccccc4)nc(=O)c3C2)c1 | –
2400 nM | 2250 nM | O=c1nc(NCc2ccc3ccccc3c2)[nH]c2c1CN(Cc1ccccc1)CC2 | –
> 10000 nM | > 10000 nM | CS(=O)(=O)c1ccc(CN2CCc3[nH]c(NCc4ccccc4)nc(=O)c3C2)cc1 | –

IC50 [2] | EC50 [3] | Structure (SMILES) | further results
> 10000 nM | > 10000 nM | O=c1nc(NCc2cccnc2)[nH]c2c1CN(Cc1ccccc1)CC2 | –
30 nM | 870 nM | N#Cc1cccc(CN2CCc3[nH]c(NCc4ccc(F)c(F)c4)nc(=O)c3C2)c1 | Ratio IC50 [4]: 20
> 10000 nM | > 10000 nM | CCN1CCc2[nH]c(NCc3ccccc3)nc(=O)c2C1 | –
> 10000 nM | > 10000 nM | O=c1nc(NCc2ccc3c(c2)OCO3)[nH]c2c1CN(Cc1ccc(Cl)c(Cl)c1)CC2 | –
> 10000 nM | > 10000 nM | N#Cc1cccc(CN2CCc3[nH]c(NCc4cccc(F)c4)nc(=O)c3C2)c1 | –
930 nM | 1090 nM | O=c1nc(NCc2ccccc2)[nH]c2c1CN(Cc1cccc(Cl)c1)CC2 | –
830 nM | 2020 nM | O=c1nc(NCc2ccccc2)[nH]c2c1CN(Cc1cccc(F)c1)CC2 | –
> 10000 nM | > 10000 nM | O=c1nc(NCc2ccccc2)[nH]c2c1CN(CC1CC1)CC2 | –
> 10000 nM | > 10000 nM | COc1cccc(CNc2nc(=O)c3c([nH]2)CCN(Cc2ccccc2)C3)c1 | –
> 10000 nM | > 10000 nM | O=c1nc(NCc2cccc(Br)c2)[nH]c2c1CN(Cc1ccccc1)CC2 | –
2900 nM | 520 nM | O=c1nc(NCc2ccc3c(c2)OCO3)[nH]c2c1CN(Cc1ccccc1)CC2 | –
> 10000 nM | > 10000 nM | Cc1ccccc1CNc1nc(=O)c2c([nH]1)CCN(Cc1cc(F)cc(F)c1)C2 | –
> 10000 nM | > 10000 nM | O=c1nc(NCc2ccccc2)[nH]c2c1CN(Cc1ccccc1F)CC2 | –
360 nM | 1000 nM | O=c1nc(NCc2ccccc2)[nH]c2c1CN(Cc1ccc(Cl)c(Cl)c1)CC2 | –
> 10000 nM | > 10000 nM | CCNc1nc(=O)c2c([nH]1)CCN(Cc1ccccc1)C2 | –
> 10000 nM | > 10000 nM | O=c1nc(NCc2ccccc2Cl)[nH]c2c1CN(Cc1ccccc1)CC2 | –
